# Where a name gives a salt, the structure may show the parent alone. Read-outs that look alike come from different tables or passages of the source. Where a SMILES comes first, the peptide text is derived from it.
# Tests used:
# [1] = system: hiPSC lines (19c3 and 23c1); assay: hiPSC growth titration assay: 1-5 passages in 12-well plates, then resazurin viability assay; conditions: for concentration required to maintain similar levels of proliferation: three-passage assay
# Source text: Each commercial medium was normalized to the DMEM/F12 levels of L-glutamine, D-glucose, sodium pyruvate, sodium bicarbonate, pH, and osmolarity (FIG. 1B). To assess the effect of basal medium on hiPSC growth, an assay was developed consisting of plating cells in 12-well plates, and growing cells for 4 days with daily medium changes, before passaging at a 1:20 ratio. This was completed for 1-5 passages followed by a cost-effective resazurin viability assay (FIG. 1C). […] This was chosen to minimize the effect of variance caused by repeated manual passaging and replating. At least two hiPSC lines were used in parallel throughout the titration process. Identified adjusted concentrations of each group, such as amino acids, was incorporated prior to beginning the next group, such as vitamins, to bring subsequent titrations as close to final formulation as possible. Once the initial full cycle of titration of all components was complete, a second full cycle of was performed to confirm the results in the final formulation. We also completed identical experiments without daily medium change to identify components and concentrations that support this protocol (FIGS. 3, 5, and 8), and to allow for development of a simplified hiPSC culture strategy.
# (§1) Human induced pluripotent cell culture: BMEM consists of BMEM basal medium and BMEM supplement. […] These are added to ultrapure water and filter sterilized. BMEM supplement consists of 5 mg/mL E. coli-derived recombinant human insulin (Gibco), […] L-ascorbic acid 2-phosphate trisodium salt (AA2P, Wako), 5 mg/mL Oryza sat-iva-derived recombinant human transferrin (Optiferrin, InVitria), 20 ng/mL sodium selenite (Sigma), 40 ng/mL recombinant human FGF2-G3 (made in-house), 0.1 ng/mL recombinant human TGFb3 (E. coli-derived, Qkine), 0.1 ng/mL recombinant human NRG1 (E. coli-derived, Shenodoah Biotechnology). Cells were routinely maintained in this medium on 1:800 diluted growth factor reduced Matrigel (Corning) diluted in a BMEM basal at 2 mL per well of a 6-well plate or equivalent. Matrigel-coated plates were kept in CO2 incubators at 37° C. for up to 1 month. BMEM was supplemented with […] thiazovivin (LC Labs), hereafter referred to as BMEM-T, for the first 24 h after passage. For standard culture, cells were passaged at a ratio of 1:20 every 4 days using 0.5 mM EDTA (Invitrogen) diluted in DPBS^−/− (without Ca^2+ and Mg^2+, Corning), after achieving ˜70%-80% confluence. Cell lines were used between passages 20 and 100. Throughout, pH was adjusted immediately after making the medium at room temperature and atmospheric oxygen and carbon dioxide levels but before filter sterilization. pH was adjusted with 12 N HCl or 1 N NaOH (both from Fisher) and measured using a SevenCompact pH meter (MettlerToledo). Osmolarity was measured using an osmometer (Advanced Instruments).
# Resazurin assay: Resazurin sodium salt (B21187.06, Thermo) was diluted to 5 mg/mL in sterile Milli-Q ultrapure water and 600 μL aliquots were made and stored at −20° C. One aliquot was added to 14.4 mL of water to generate a 10× stock. Stock was diluted in BMEM to 1×, and 1 mL was added to each well of a 12-well plate and incubated at 37° C. for 2.5 h. Plates were read on a Varioskan Lux (Thermo) in fluorescent mode using top read and an excitation wavelength of 560 nm and an emission wavelength of 590 nm.
# [2] = 110 mM NaCl
# Procedure: as §1, with “For standard culture, cells were passaged at a ratio of 1:20 every 4 days using 0.5 mM EDTA (Invitrogen) diluted in DPBS^−/− (without Ca^2+ and Mg^2+, Corning), after achieving ˜70%-80% confluence. Cell lines were used between passages 20 and 100.” left out
# [3] = daily medium change, multi-passage assay, normalized to DMEM/F12
Compound,"requirement of the component for hiPSC growth [1, 3]","suitable concentration compared with that in DMEM/F12 ([1]; titration, daily medium change)",also measured
"O=C(O)CCCC[C@@H]1CCSS1 (racemic) [lipoic acid, Lipoic acid]",superfluous,–,–
"[Ca+2].[Cl-].[Cl-] [CaCl2, Calcium chloride (CaCl2)]",–,could be reduced,effect of low concentrations on hiPSCs ([1]; two-passage titration): reduced the adhesion of hiPSCs to the plates
"CC(C)(CO)[C@@H](O)C(=O)NCCC(=O)[O-].CC(C)(CO)[C@@H](O)C(=O)NCCC(=O)[O-].[Ca+2] [D-pantothenic acid, D-Pantothenic acid hemicalcium salt (B5)]",–,higher concentrations,–
O=S(=O)(O)CCN1CCN(CCO)CC1 [HEPES],superfluous,–,requirement of the component for hiPSC growth ([1]; no medium change): superfluous
"[Cl-].[K+] [KCl, Potassium chloride (KCl)]",–,could be reduced,–
C[C@H](N)C(=O)N[C@@H](CCC(N)=O)C(=O)O [L-alanyl-L-glutamine] (H-Ala-Gln-OH),–,–,"hiPSC growth rate compared with glutamine at the suitable concentrations ([1]; 2 mM vs 1 mM glutamine, also with no medium change): no difference; concentration required to maintain similar levels of proliferation [1]: 2 mM"
"O=S(=O)([O-])[O-].[Mg+2] [MgSO4, Magnesium sulfate (MgSO4)]",–,enhanced growth,–
"[Cl-].[Na+] [NaCl, Sodium chloride (NaCl)]",–,–,"concentration suitable for hiPSC growth ([1]; NaCl titration in the presence of sodium bicarbonate, two-passage assay): 110 mM; osmolarity produced [2]: 295 mOsm/L"
CC(=O)C(=O)[O-].[Na+] [Sodium pyruvate],essential,slightly higher concentration,–
"O.O.O.O.O.O.O.O=S(=O)([O-])[O-].[Zn+2] [Zinc, Zinc sulfate heptahydrate (ZnSO4•7H2O)]",not shown to be essential,–,improvement of hiPSC growth ([1]; two-passage assay): approximately 10%
"O=C(O)CCCC[C@@H]1SC[C@@H]2NC(=O)N[C@@H]21 [biotin, Biotin (B7)]",–,sufficient at concentrations lower than those in DMEM/F12,–
"O.O.O.O.O.O=S(=O)([O-])[O-].[Cu+2] [copper, Copper(II) sulfate pentahydrate (CuSO4•5H2O)]",No advantage,–,concentration at which toxic to hiPSCs [1]: > 100 µM
"N[C@@H](CS)C(=O)O [cysteine, L-Cysteine HCl•H2O]",can replace the cystine and cysteine combination,–,–
"Nc1nc(=O)c2nc(CNc3ccc(C(=O)N[C@@H](CCC(=O)O)C(=O)O)cc3)cnc2[nH]1 [folic acid, Folic acid (B9)]",–,sufficient at concentrations lower than those in DMEM/F12,–
"NC(=O)CC[C@H](N)C(=O)O [glutamine, L-Glutamine]",–,suitable at lower concentrations,concentration required to maintain similar levels of proliferation [1]: 1 mM
"NCC(=O)O [glycine, Glycine]",–,–,requirement of the component for hiPSC growth ([1]; no medium change): superfluous
"N[C@@H](Cc1c[nH]cn1)C(=O)O [histidine, L-Histidine HCl•H2O]",–,approximately suitable,–
"O=c1[nH]cnc2nc[nH]c12 [hypoxanthine, Hypoxanthine]",superfluous,–,–
"O.O.O.O.O.O.O.O.O.O=[N+]([O-])[O-].O=[N+]([O-])[O-].O=[N+]([O-])[O-].[Fe+3] [iron nitrate, Iron(III) nitrate nonahydrate (Fe(NO3)3•9H2O)]",–,–,"toxicity to hiPSCs ([1]; concentration titration, two-passage assay): toxic at high concentrations"

Compound,"requirement of the component for hiPSC growth [1, 3]","suitable concentration compared with that in DMEM/F12 ([1]; titration, daily medium change)",also measured
"O.O.O.O.O.O.O.O=S(=O)([O-])[O-].[Fe+2] [iron sulfate, Iron(II) sulfate heptahydrate (FeSO4•7H2O)]",–,–,toxicity to hiPSCs [1]: toxic at high concentrations
"CC(C)C[C@H](N)C(=O)O [leucine, L-Leucine]",–,approximately suitable,–
"CCCCC/C=C\C/C=C\CCCCCCCC(=O)O [linoleic acid, Linoleic acid]",superfluous,–,–
"Cl.NCCCC[C@H](N)C(=O)O [lysine, L-Lysine HCl]",–,approximately suitable,–
"CSCC[C@H](N)C(=O)O [methionine, L-Methionine]",–,approximately suitable,–
"O[C@H]1[C@H](O)[C@@H](O)[C@H](O)[C@@H](O)[C@H]1O [myoinositol, myo-Inositol]",–,higher concentrations,–
"NC(=O)c1cccnc1 [nicotinamide, Nicotinamide (B3)]",–,sufficient at concentrations lower than those in DMEM/F12,–
"Cl.Cl.NCCCCN [putrescine, Putrescine dihydrochloride]",superfluous,–,–
"Cc1ncc(CO)c(CO)c1O [pyridoxine, Pyridoxine hydrochloride (B6)]",–,sufficient at concentrations lower than those in DMEM/F12,–
"Cc1cc2nc3c(=O)[nH]c(=O)nc-3n(C[C@H](O)[C@H](O)[C@H](O)CO)c2cc1C [riboflavin, Riboflavin (B2)]",–,sufficient at concentrations lower than those in DMEM/F12,–
"O=C([O-])O.[Na+] [sodium bicarbonate, Sodium bicarbonate (NaHCO3)]",–,–,concentration most suitable for hiPSC growth ([1]; pH normalized to 7.1): 22.5 mM
"O.O=P([O-])(O)O.[Na+] [sodium phosphate monobasic, Sodium phosphate monobasic monohydrate (NaH2PO4•H2O)]",superfluous,–,concentration at which essential ([1]; no medium change assay): around 2 mM
"Cc1ncc(C[n+]2csc(CCO)c2C)c(N)n1 [thiamine, Thiamine hydrochloride (B1)]",superfluous,–,requirement of the component for hiPSC growth ([1]; normoxic conditions (21% O2)): required
"C[C@@H](O)[C@H](N)C(=O)O [threonine, L-Threonine]",–,approximately suitable,–
"Cc1cn([C@H]2C[C@H](O)[C@@H](CO)O2)c(=O)[nH]c1=O [thymidine, Thymidine]",superfluous,–,–
"N[C@@H](Cc1c[nH]c2ccccc12)C(=O)O [tryptophan, L-Tryptophan]",–,–,"suitable concentration relative to that in DMEM/F12 ([1]; titration, two-passage assay): ~4 fold"
"N[C@@H](Cc1ccc(O)cc1)C(=O)O [tyrosine, L-Tyrosine disodium salt hydrate]",–,approximately suitable,–
Iron,essential,–,–

# — patent publication US20260085292A1, “MINIMAL ESSENTIAL MEDIA FOR THE CULTURE OF HUMAN INDUCED PLURIPOTENT STEM CELLS” (Northwestern University, priority 2022, published 2026)
